Measurements taken from US6531509B2, “Stable gabapentin containing more than 20 ppm of chlorine ion” (Teva Pharmaceutical Industries Ltd., priority 2000, dated 2003).

Columns and labels:
[1] = Long-term storage stability of purified gabapentin (lactam formation, HPLC vs. standard); format: physicochemical; settings: purified bulk gabapentin
Excerpt: Gabapentin purified according to these procedures contains less than 0.5% lactam as measured by HPLC vs. standard.

[2] = tested on: cardiozole cramp; settings: in animals; cited from earlier work
[3] = according to Augart; cited from earlier work

Row | Compound | amount of lactam after storage ([1]; a year of storage at 25° C. and 50% relative humidity) | conversion of gabapentin to its corresponding lactam ([1]; a year of storage at 25° C. and 60% relative humidity) | amount of lactam after storage ([1]; a year of storage at 55° C. and 50% relative humidity) | effect against cardiozole cramp [2] | toxicity relative to gabapentin [3]
1 | NCC1(CC(=O)O)CCCCC1 [Gabapentin, 1-(aminomethyl)-1-cyclohexaneacetic acid] | less than 0.5 % by weight | ≤ 0.2 % by weight of gabapentin | less than 0.5 % by weight | protective effect against cardiozole cramp | 
2 | O=C1CC2(CCCCC2)CN1 [lactam] |  |  |  |  | higher toxicity than gabapentin
